Assay results as given in PMC8222254, “Self-assembly of an anion receptor with metal-dependent kinase inhibition and potent in vitro anti-cancer properties” (Nature Communications, 2021).
pIC50: −log10 of the molar value. Several values for one entry are separate records, joined by “and”; a condition that tells them apart may be missing. Equal values may be shown once. Read-outs that look alike come from different tables or passages of the source.

Key:
Assay in all cases: Chemosensitivity, 96 h continuous exposure, MTT assay
Assay type in all cases: cell-based, human
[1] = system: H460
Source text: (§1) All cell lines were purchased from and maintained as monolayers as described by the American Type Culture Collection with the exception of the p53^+/+ and p53^−/− isogenic clones of HCT116 human colorectal adenocarcinoma cells which were a kind gift from Professor Bert Vogelstein[54]. GBM1 cells were established from a primary GBM tumour by Heiko Wurdak and colleagues[32],[33]. Non-cancerous adult brain neural progenitor (NP1) cells were derived from a patient undergoing surgery to treat epilepsy[32],[33]. Cell culture and growth media for NP1 and GBM1 cells were as described[32],[33]. The response of cells following a continuous 96-h exposure to test compounds and platinates was determined using the MTT assay. Potency was recorded as the IC50 and the selectivity index (SI) was defined as the ratio of IC50 values for non-cancer to cancer cell lines with values >1 representing selectivity for cancer cells as opposed to non-cancer cells.
(§2) All cell lines used were maintained at low passage in antibiotic-free media. HT29, DLD-1, HCT116 p53^+/+ and HCT116 p53^−/− are all colorectal adenocarcinoma cell lines derived from different individuals and harbour different combinations of oncogenic lesions (except for the HCT116 isogenic cancer cell clones that are genetically identical except for p53 status). PSN-1, BxPC-3 and MiaPaCa2 are pancreatic carcinoma cell lines and A549 and H460 are lung carcinoma cell lines. HT29, DLD-1, PSN-1, BxPC-3, A549 and H460 cell lines were cultured in RPMI-1640 growth media (Sigma) containing 2 mM L-glutamine, 1 mM sodium pyruvate and 10% foetal bovine serum (FBS). HCT116 (p53^+/+ and p53^−/−) and MiaPaCa2 cell lines were cultured in Dulbecco’s Modified Eagle’s Medium (Sigma), 2 mM L-glutamine and 10% FBS. The ARPE-19 retinal epithelial non-cancer cell line was cultured in DMEM/F12 media (Gibco), 2 mM L-glutamine, 1 mM sodium pyruvate and 10% FBS. The MCF10A non-cancerous human breast epithelial cell line was cultured in Minimal Essential Media Eagle (Sigma), 2 mM L-glutamine, 1 mM sodium pyruvate, 10% FBS and 1x non-essential amino acids (NEAA). NP1 and GBM1 cells were cultured on plasticware coated with poly-L-ornithine (5 µg/ml) and laminin (2.4 µg/ml)[32],[33]. NP1 cells were grown in DMEM/F12 media (Gibco) supplemented with 5% FBS, 20 ng/ml hFGF, 20 ng/ml rhEGF, 0.5x B-27 supplement (Gibco), 0.5x N-2 supplement (Gibco) and 1x GLUTAMAX (Gibco). GBM1 cells were cultured in Neurobasal media (Gibco) supplemented with 40 ng/ml hFGF, 40 ng/ml rhEGF, 0.5x B-27 supplement (Gibco) and 0.5x N-2 supplement (Gibco).
(§3) [L2(Metal)3]^6+ and all the other self-assembling complexes were freshly formed by adding DMSO to individual components and mixing together by pipetting. These were then further diluted in cell culture media such that the final DMSO concentration that cells were exposed to was 0.2% (vehicle control). Cisplatin, oxaliplatin and carboplatin were dissolved in phosphate buffered saline. Cell lines were seeded into 96 well plates at 2 × 10^3 cells per well and incubated overnight at 37 °C. GBM1 cancer stem-like cells were seeded at 3 × 10^3 cells per well and NP1 neural progenitors were seeded at 1.5 × 10^3 cells per well. The following day, media was removed and replaced with fresh media containing test compounds at a range of concentrations. Cells were incubated with test compounds for a further 96 h after which the media was removed and replaced with fresh media (200 μl/well). MTT was added (20 μl at 5 mg/ml) and cells were incubated for a further 4 h. Media and MTT were removed and formazan crystals were dissolved in 150 μl of DMSO and the absorbance of the resulting solution determined at 540 nm. Dose response curves were constructed, and the concentration required to reduce cell growth by 50% (IC50) determined.

[2] = system: PSN1
Source text: as §1, §2, §3

[3] = system: MiaPaCa2
Source text: as §1, §2, §3

[4] = system: BxPC3
Source text: as §1, §2, §3

[5] = system: HT-29
Source text: as §1, §2, §3

[6] = system: ARPE-19 non-cancer cells
Source text: as §1, §2, §3

[7] = system: MCF10A non-cancer cells
Source text: as §1, §2, §3

[Cu+2].[Cu+2].[Cu+2].c1ccc(-c2csc(NCCN(CCNc3nc(-c4ccccn4)cs3)CCNc3nc(-c4ccccn4)cs3)n2)nc1.c1ccc(-c2csc(NCCN(CCNc3nc(-c4ccccn4)cs3)CCNc3nc(-c4ccccn4)cs3)n2)nc1 [[L2Cu3]6+]
pIC50 ([1]; H460, 96 h, MTT, individual run, read-out: IC50 values for each replicate): 6.59 and 6.63 and 6.35 and 6.79 | pIC50 ([1]; H460, 96 h, MTT, mean of at least 3 independent experiments, read-out: Mean IC50): 6.56 | pIC50 ([1]; H460, mean of replicates, read-out: Mean IC50): 6.56 | pIC50 ([1]; H460, read-out: Mean IC50 values): 6.56 | Selectivity index (ARPE19) ([1]; IC50 ARPE-19 / IC50 H460): 190.69 | Selectivity index (MCF10A) ([1]; IC50 MCF10A / IC50 H460): 174.86 | Selectivity Index using the NPI non-cancer cell line ([1]; IC50 NP1 / IC50 H460): 156.12 | SI (ARPE19) ([1]; mean IC50 ARPE-19 / mean IC50 H460): 190.69 | SI (MCF10A) ([1]; mean IC50 MCF10A / mean IC50 H460): 174.86 | SI (NPI) ([1]; mean IC50 NP1 / mean IC50 H460): 156.12 | Relative potency (+ anion to no anion), Ratio + anion:no anion ([1]; ratio of IC50, H460): 1 | Selectivity indices relative to ARPE-19, Ratio + anion:no anion ([1]; ratio of SI (ARPE-19), H460): 1 | Selectivity indices relative to MCF10A, Ratio + anion:no anion ([1]; ratio of SI (MCF 10A), H460): 1 | Selectivity index (ARPE19) ([2]; IC50 ARPE-19 / IC50 PSN1): 8.16 | Selectivity index (MCF10A) ([2]; IC50 MCF10A / IC50 PSN1): 7.48 | Selectivity Index using the NPI non-cancer cell line ([2]; IC50 NP1 / IC50 PSN1): 6.68 | pIC50 ([2]; PSN1, 96 h, MTT, individual run, read-out: IC50 values for each replicate): 5.20 and 5.22 and 5.15 | pIC50 ([2]; PSN1, 96 h, MTT, mean of at least 3 independent experiments, listed as [L2Cu3]^6+, read-out: Mean IC50): < 6.00 | pIC50 ([2]; PSN1, 96 h, MTT, mean of at least 3 independent experiments, read-out: Mean IC50): 5.19 | pIC50 ([2]; PSN1, mean of replicates, read-out: Mean IC50): 5.19 | pIC50 ([2]; PSN1, read-out: Mean IC50 values): 5.19 | SI (ARPE19) ([2]; mean IC50 ARPE-19 / mean IC50 PSN1): 8.16 | SI (MCF10A) ([2]; mean IC50 MCF10A / mean IC50 PSN1): 7.48 | SI (NPI) ([2]; mean IC50 NP1 / mean IC50 PSN1): 6.68 | Relative potency (+ anion to no anion), Ratio + anion:no anion ([2]; ratio of IC50, PSN1): 1 | Selectivity indices relative to ARPE-19, Ratio + anion:no anion ([2]; ratio of SI (ARPE-19), PSN1): 1 | Selectivity indices relative to MCF10A, Ratio + anion:no anion ([2]; ratio of SI (MCF 10A), PSN1): 1 | Selectivity index (ARPE19) ([3]; IC50 ARPE-19 / IC50 MiaPaCa2): 4.46 | Selectivity index (MCF10A) ([3]; IC50 MCF10A / IC50 MiaPaCa2): 4.09 | Selectivity Index using the NPI non-cancer cell line ([3]; IC50 NP1 / IC50 MiaPaCa2): 3.65 | pIC50 ([3]; MiaPaCa2, 96 h, MTT, individual run, read-out: IC50 values for each replicate): 4.77 and 5.18 and 5.20 and 5.28 and 4.75 | pIC50 ([3]; MiaPaCa2, 96 h, MTT, mean of at least 3 independent experiments, listed as [L2Cu3]^6+, read-out: Mean IC50): < 5.00 | pIC50 ([3]; MiaPaCa2, 96 h, MTT, mean of at least 3 independent experiments, read-out: Mean IC50): 4.93 | pIC50 ([3]; MiaPaCa2, mean of replicates, read-out: Mean IC50): 4.93 | pIC50 ([3]; MiaPaCa2, read-out: Mean IC50 values): 4.93 | SI (ARPE19) ([3]; mean IC50 ARPE-19 / mean IC50 MiaPaCa2): 4.46 | SI (MCF10A) ([3]; mean IC50 MCF10A / mean IC50 MiaPaCa2): 4.09 | SI (NPI) ([3]; mean IC50 NP1 / mean IC50 MiaPaCa2): 3.65 | Relative potency (+ anion to no anion), Ratio + anion:no anion ([3]; ratio of IC50, MiaPaCa2): 1 | Selectivity indices relative to ARPE-19, Ratio + anion:no anion ([3]; ratio of SI (ARPE-19), MiaPaCa2): 1 | Selectivity indices relative to MCF10A, Ratio + anion:no anion ([3]; ratio of SI (MCF 10A), MiaPaCa2): 1 | pIC50 ([4]; BXPC3, mean of replicates, read-out: Mean IC50): 6.53 | pIC50 ([4]; BXPC3, read-out: Mean IC50 values): 6.53 | pIC50 ([4]; BxPC3, 96 h, MTT, individual run, read-out: IC50 values for each replicate): 6.65 and 6.57 and 6.35 and 6.63 | pIC50 ([4]; BxPC3, 96 h, MTT, mean of at least 3 independent experiments, read-out: Mean IC50): 6.53 | Selectivity index (ARPE19) ([4]; IC50 ARPE-19 / IC50 BXPC3): 179.62 | Selectivity index (MCF10A) ([4]; IC50 MCF10A / IC50 BXPC3): 164.71 | Selectivity Index using the NPI non-cancer cell line ([4]; IC50 NP1 / IC50 BXPC3): 147.06 | SI (ARPE19) ([4]; mean IC50 ARPE-19 / mean IC50 BxPC3): 179.62 | SI (MCF10A) ([4]; mean IC50 MCF10A / mean IC50 BxPC3): 164.71 | SI (NPI) ([4]; mean IC50 NP1 / mean IC50 BxPC3): 147.06 | Relative potency (+ anion to no anion), Ratio + anion:no anion ([4]; ratio of IC50, BXPC3): 1 | Selectivity indices relative to ARPE-19, Ratio + anion:no anion ([4]; ratio of SI (ARPE-19), BXPC3): 1 | Selectivity indices relative to MCF10A, Ratio + anion:no anion ([4]; ratio of SI (MCF 10A), BXPC3): 1 | pIC50 ([5]; HT29, mean of replicates, read-out: Mean IC50): 6.67 | pIC50 ([5]; HT29, read-out: Mean IC50 values): 6.67 | pIC50 ([5]; HT-29, 96 h, MTT, individual run, read-out: IC50 values for each replicate): 6.74 and 6.68 and 6.56 and 6.65 and 6.76 | pIC50 ([5]; HT-29, 96 h, MTT, mean of at least 3 independent experiments, read-out: Mean IC50): 6.67 | Selectivity index (ARPE19) ([5]; IC50 ARPE-19 / IC50 HT29): 245.93 | Selectivity index (MCF10A) ([5]; IC50 MCF10A / IC50 HT29): 225.51 | Selectivity Index using the NPI non-cancer cell line ([5]; IC50 NP1 / IC50 HT29): 201.36 | SI (ARPE19) ([5]; mean IC50 ARPE-19 / mean IC50 HT-29): 245.93 | SI (MCF10A) ([5]; mean IC50 MCF10A / mean IC50 HT-29): 225.51 | SI (NPI) ([5]; mean IC50 NP1 / mean IC50 HT-29): 201.36 | Relative potency (+ anion to no anion), Ratio + anion:no anion ([5]; ratio of IC50, HT29): 1 | Selectivity indices relative to ARPE-19, Ratio + anion:no anion ([5]; ratio of SI (ARPE-19), HT29): 1 | Selectivity indices relative to MCF10A, Ratio + anion:no anion ([5]; ratio of SI (MCF 10A), HT29): 1 | pIC50 ([6]; ARPE-19, 96 h, MTT, individual run, read-out: IC50 values for each replicate): 4.31 and 4.36 and 4.24 and 4.18 and 4.33 | pIC50 ([6]; ARPE-19, 96 h, MTT, mean of at least 3 independent experiments, read-out: Mean IC50): 4.28 | pIC50 ([6]; ARPE-19, mean of replicates, read-out: Mean IC50): 4.28 | pIC50 ([6]; ARPE-19 non-cancer, read-out: Mean IC50 values): 4.28 | Relative potency (+ anion to no anion), Ratio + anion:no anion ([6]; ratio of IC50, ARPE-19): 1 | pIC50 ([7]; MCF10A non-cancer, read-out: Mean IC50 values): 4.32 | pIC50 ([7]; MCF10A, 96 h, MTT, individual run, read-out: IC50 values for each replicate): 4.28 and 4.24 and 4.41 and 4.36 and 4.31 | pIC50 ([7]; MCF10A, 96 h, MTT, mean of at least 3 independent experiments, read-out: Mean IC50): 4.32 | pIC50 ([7]; MCF10A, mean of replicates, read-out: Mean IC50): 4.32 | Relative potency (+ anion to no anion), Ratio + anion:no anion ([7]; ratio of IC50, MCF10A): 1
